Reference: patent US20230114264A1, “ACTIVATION OF LYTIC GENES IN CANCER CELLS” (priority 2020, published 2023)

Tested on: BGLF4
Experiment: BGLF4 gRNA transfection into C666-1 cells, Western blotting
Type: cell-based, Epstein-Barr virus (EBV)
Settings: FIG. 12B
Experimental: BGLF4 gRNAs were tested for triggering EBV reactivation in C666-1 cells expressing HA-dCas9-EGFP and 3×FLAG-pUFa-p65HSF1. Seven EBV genomic loci at the BGLF4 promoter were used to design the gRNAs for BGLF4 induction (gRNA (1), gRNA (2), gRNA (3), gRNA (4), gRNA (5), gRNA (6), and gRNA (7)). Individual BGLF4 gRNAs were transfected into cells and the induction of BGLF4 protein expression was studied by Western blotting. […] To study the combination effects of BGLF4 gRNAs, BGLF4 gRNAs were transfected into cells individually or in combination. […] As a positive control of EBV reactivation, the C666-1 cells were treated with the chemical inducer Gemcitabine to trigger EBV reactivation.

Structure (SMILES): Nc1ccn([C@@H]2O[C@H](CO)[C@@H](O)C2(F)F)c(=O)n1 [Gemcitabine]
- EBV reactivation (BZLF1 expression): implied the trigger of EBV reactivation
